The results in this text go back to US9365556B2, “3,5-diaminopyrazole kinase inhibitors” (Axikin Pharmaceuticals, Inc., priority 2012, dated 2016).

Data set [1] deals with T1, kinase domain protein of RC kinase (Homo sapiens, UniProt Q56UN5).
T1 sequence (Q56UN5 1061-1324 limits assumed): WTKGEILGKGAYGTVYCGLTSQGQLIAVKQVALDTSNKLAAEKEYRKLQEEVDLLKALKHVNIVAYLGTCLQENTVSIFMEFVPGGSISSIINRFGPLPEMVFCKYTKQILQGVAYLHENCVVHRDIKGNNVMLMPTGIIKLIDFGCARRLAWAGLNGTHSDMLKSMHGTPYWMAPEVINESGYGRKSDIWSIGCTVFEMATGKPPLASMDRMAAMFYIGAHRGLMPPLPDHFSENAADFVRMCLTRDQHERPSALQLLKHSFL
The data set is described as follows: Enzymatic assay for kinase inhibitory activity (Crebtide substrate, LANCE read-out). In kind it is biochemical. Conditions: compound at 1 μM. An outline of the steps: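 Compound tested at 1 μM final in HEPES/MgCl2/DTT buffer with 50 nM Crebtide and kinase domain at 1 μM ATP; full-length kinase at 3 μM ATP after 45 min preincubation. Reaction 45 min at room temperature, stopped with EDTA, read by LANCE TR-FRET (665/615 nm). Activity binned as % inhibition at 1 μM.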
A general note: Time-resolved FRET reads energy transfer from a long-lived donor to a nearby acceptor.

Turning to `COc1ccccc1/C=N/c1[nH]nc(Nc2cccc(Cl)c2)c1C(N)=O` [Compound B18], the melting point – broadly, the temperature of the solid-liquid transition – lay within 270 to 273 °C. For the same compound, the inhibition (as a rule, the drop in the measured response relative to a control, in per cent) at 1 µM in data set [1] was 20 to 50%.
`NC(=O)c1c(Nc2ccc(Cl)cc2)n[nH]c1/N=C/c1ccc(O)cc1` [Compound B26] returned a melting point of 288 to 289 °C. In data set [1], the inhibition at 1 µM is not below 50%.
Consider `N#Cc1c(Nc2cccc(Cl)c2)n[nH]c1/N=C/c1cnc(N)s1` [Compound A103], for which the melting point fell in the range of 221 to 225 °C. Also, in data set [1] (1 µM), the “Activity (inhibition of the RC kinase activity)” value is listed as “D (no greater than 5% inhibition of the RC kinase activity at 1 μM)”.
`COc1ccccc1/C=N/c1[nH]nc(Nc2ccc(Cl)cc2)c1C(N)=O` [Compound B34]: the melting point was in the range of 270 to 273 °C. Further, the inhibition at 1 µM in data set [1] was not above 5%.
The compound `NC(=O)c1c(Nc2ccccc2Cl)n[nH]c1/N=C/c1ccc([N+](=O)[O-])c(O)c1` [Compound B114] had a melting point of 294 to 296 °C. Further, the inhibition at 1 µM in data set [1] lay in the range of 20 to 50%.
The matching figures for `N#Cc1c(Nc2ccccc2)n[nH]c1/N=C/c1ccc([N+](=O)[O-])cc1` [Compound A19]: 290 to 294 °C and 5 to 20%.
The matching figures for `N#Cc1c(Nc2cccc(Cl)c2)n[nH]c1/N=C/c1ccc(-n2cnc3ccccc32)cc1` [Compound A67]: 308 to 310 °C and 20 to 50%.
`N#Cc1c(Nc2cccnc2)n[nH]c1/N=C/c1ccc(O)cc1` [Compound A110] had a melting point of 311 to 314 °C. Further, the inhibition at 1 µM in data set [1] lay in the range of 20 to 50%.
The matching figures for `Cc1cc(F)ccc1/C=N/c1[nH]nc(Nc2cccc(Cl)c2)c1C#N` [Compound A99]: 253 to 257 °C and 5 to 20%.
`NC(=O)c1c(Nc2cccc(Cl)c2)n[nH]c1/N=C/c1cc(Cl)ccc1O` [Compound B50] registered a melting point of 283 to 287 °C. The inhibition at 1 µM in data set [1] is 5 to 20%.
In turn, `NC(=O)c1c(Nc2cccnc2)n[nH]c1/N=C/c1ccc(O)cc1` [Compound B121, 5-((4-hydroxybenzylidene)amino)-3-(pyridin-3-ylamino)-1H-pyrazole-4-carboxamide] showed a melting point of 306 to 309 °C. For the same compound, the inhibition at 1 µM in data set [1] was not below 50%.
In the case of `N#Cc1c(Nc2ccccc2)n[nH]c1/N=C/c1ccccc1` [Compound A9], the melting point was 257 to 260 °C. Further, the inhibition at 1 µM in data set [1] is 20 to 50%.
The matching figures for `NC(=O)c1c(Nc2ccc(Cl)cc2)n[nH]c1/N=C/c1ccc(O)c([N+](=O)[O-])c1` [Compound B22]: 295 to 297 °C and 20 to 50%.
The matching figures for `N#Cc1c(Nc2cccc(Cl)c2)n[nH]c1/N=C/c1ccc(N2CCOCC2)nc1` [Compound A79]: 273 to 279 °C and not above 5%.
The matching figures for `COc1cc(/C=N/c2[nH]nc(Nc3cccc(Cl)c3)c2C(N)=O)ccc1O` [Compound B7]: 268 to 270 °C and not below 50%.
`N#Cc1c(Nc2ccccc2)n[nH]c1/N=C/c1ccc(Cl)cc1` [Compound A7] returned a melting point of 276 to 278 °C. Besides, the inhibition at 1 µM in data set [1] was 5 to 20%.
The matching figures for `N#Cc1c(NC2CC2)n[nH]c1/N=C/c1ccc(O)cc1` [Compound A48, 3-(cyclopropylamino)-5-((4-hydroxybenzylidene)amino)-1H-pyrazole-4-carbonitrile]: 220 to 228 °C and not above 5%.
The matching figures for `NC(=O)c1c(Nc2ccccc2)n[nH]c1/N=C/c1ccc(O)c([N+](=O)[O-])c1` [Compound B9]: 275 to 277 °C and not below 50%.
The matching figures for `COc1ccc(/C=N/c2[nH]nc(Nc3ccc(Cl)cc3)c2C#N)cc1` [Compound A33]: 290 to 291 °C and not above 5%.
